Test results published in patent US9403800B2, “Compounds for inhibition of cancer cell proliferation” (ChemRegen, Inc., priority 2012, dated 2016).

Assays:
[1] = test system: HEK-293T cells; experiment: Alamar Blue resazurin-based cell viability assay, HEK-293T; conditions: Homo sapiens, read-out: decrease of cell viability, EC50
[2] = test system: NF-B signaling pathway; experiment: NF-B signaling pathway transcriptional activity (selectivity); assay type: cell-based
[3] = test system: normal human fibroblast cells; experiment: effect on normal human fibroblast cells; assay type: cell-based
[4] = test system: HEK-293T cells; experiment: cytotoxicity by leakage of G6PDH, HEK-293T; assay type: cell-based
[5] = test system: PC-3; experiment: inhibition of proliferation (PicoGreen DNA assay), PC-3; assay type: cell-based; conditions: Homo sapiens
Method: We tested a subset of the 50 sulfonamide analogues for inhibition of proliferation of the MDA-MB-231, PC-3, MCF-7, and HCT-116 cancer cell lines. Following plating of the cells (24 hrs) in eight identical 96-well plates, the cells were treated with either Compound 1, 4, 15, or vehicle (DMSO) using a dose range of 1.6 to 5000 nM. After the lysis of cells, the cell lysate was resuspended in 25 μl PBS and the DNA was quantified using a PicoGreen assay by measuring fluorescence at Ex490 nm/Em535 nm. Cell proliferation was inhibited by Compounds 1, 4, and 15 for all the cancer cell lines tested with inhibition constants listed in Table 2.

[6] = test system: Endogenous Target Genes for Wnt & Apoptotic Pathways in LNCAP; experiment: qPCR of Wnt and pro-apoptotic target genes, LNCAP; assay type: cell-based; parameters: MYC expression, % change relative to DMSO control / CCDN1 expression, % change relative to DMSO control / BAX expression, % change relative to DMSO control / BAK expression, % change relative to DMSO control / BBC3 expression, % change relative to DMSO control / FOS expression, % change relative to DMSO control: concentration or dose not given beside the values; conditions: 24 hrs, qPCR normalized to 36B4
[7] = test system: canonical Wnt target genes, Cyclin D1 (CCND1), Axin2 (AXIN2), and c-Myc (c-MYC); experiment: mRNA levels of canonical Wnt target genes in HEK293T and SW480 cells; assay type: cell-based; conditions: HEK293T and SW480 colorectal cells
[8] = test system: HEK293 cells; experiment: apoptosis in HEK293 cells; assay type: cell-based; conditions: upon treatment
[9] = test system: Endogenous Target Genes for Wnt & Apoptotic Pathways in PC-3; experiment: qPCR of Wnt and pro-apoptotic target genes, PC-3; assay type: cell-based; parameters: concentration or dose not given beside the values; conditions: PC-3, 24 hrs, qPCR normalized to 36B4
Method: Given the effects of Compounds 1, 4, and 15 on biological functions (e.g., proliferation, viability, and apoptosis) in several cancer cell lines, we tested the effects of compounds 1, 4, and 15 on regulation of endogenous Wnt and pro-apoptotic gene expression. MDA-MB-231, MCF-7, PC-3, and HCT-116 cancerncells were treated with the indicated compounds for 24 hrs. over a dose range from 1.6 to 5000 nM. Gene expression was measured using qPCR, normalized to the housekeeping gene, 36B4, and calculated % change relative to DMSO control. NC, no change.

[10] = test system: HCT-116 and MCF-7 cancer cells; p53 −/− isogenic HCT-116 cells; experiment: morphology change of cancer cells with and without p53; assay type: cell-based; conditions: for morphology change in cancer cells with wild-type and mutant p53: HCT-116 and MCF-7, 500 nM for 24 hours; for morphology change in cells lacking p53: −/− p53 isogenic HCT-116 cells, 500 nM for 24 hours
Excerpt: Using the same treatment conditions, this morphology change was not observed in […] cells lacking p53 (i.e., −/− p53, isogenic HCT-116 cells) highlighting the integral importance of p53 protein in the mechanism of action of the disclosed compounds.

[11] = test system: SW480 colorectal cancer model cell line; experiment: SW480 cell proliferation and cell cycle (InCell 1000); assay type: cell-based, human
Excerpt: Previous studies have shown that the Wnt signaling pathway drives cellular proliferation of a number of cancers through up-regulation of genes for several proteins crucial for cell division including Cyclin D1, c-Myc, etc. and treatment of cancer cells with 1 or analogs decreases cellular proliferation. Accordingly, we examined the effect of 1 and analogs on cell proliferation of human cancer cell lines. […] The results were confirmed by studying the effects of 1 on SW480 human colon cell cycle determined by cell images captured by InCell 1000.

[12] = test system: PC-3 prostate tumors; experiment: PC-3 prostate tumor xenograft; assay type: in vivo, mice; conditions: for growth of PC-3 prostate tumors: i.p. 30 mg/kg daily for 19 days
Method: (§1) Based on the inhibition of cancer cell proliferation by the disclosed compounds the disclosed compounds likely will inhibit cancer cell migration. […] Following establishment of HCT-116 tumors, daily doses of either Compound 15 or vehicle were administered by i.p. injection at 20 mg/kg for 28 days. […] The weight of the excised HCT-116 tumors was 77% lower for the Compound 15-treated mice relative to the vehicle control on Day 28 of the experiment. […] Following establishment of PC-3 tumors, daily doses of either Compounds 1, 15 or vehicle were administered by i.p. injection at 30 mg/kg for 19 days. […] The weight of the excised PC-3 tumors was 66% for compound 15-treated mice compared to vehicle-treated controls on Day 19 of the experiment.

[13] = test system: MDA-MB-231; experiment: viability (Alamar Blue), MDA-MB-231; assay type: cell-based; conditions: Homo sapiens; MDA-MB-231, 24 hrs
Method: Given Compounds 1, 4, and 15 inhibited cancer cell proliferation and stimulated apoptosis, we tested the effects compounds 1, 4, and 15 on cancer cell viability and cytotoxicity. The MDA-MB-231, MCF-7, PC-3, and HCT-116 cells were treated with the indicated compounds for 24 hrs. over a dose range from 1.6 to 5000 nM. Viability and cytotoxicity were then measured by the Alamar Blue and Vibrant Cytotox assays respectively.

[14] = in vivo toxicity assessment in rats; conditions: 30 mg/kg p.o. daily for one week
Method: Compounds of structure I were designed to be chemically and metabolically stable and non-toxic. For example, the alpha methyl group of the quinoxalin ring system protects the sulfonamide from rapid metabolism or hydrolysis. […] We tested Compounds 4 and 15 for toxicity in rats. In one study, we dosed rats with Compound 4 (p.o) daily for one week with 30 mg/kg. In another study, we dosed rats daily for one week with 30 mg/kg Compound 15 by p.o. administration. We monitored the weights of the rats daily over the course of both studies. […] Blood was also obtained from the animals at termination of the experiment.

[15] = test system: HCT-116 xenograft colon tumors; experiment: HCT-116 xenograft colon tumors in nu/nu mice; assay type: in vivo
Method: as §1

Row | Structure (SMILES) | IC50 [5] | BAK expression, % change relative to DMSO control [6] | BAX expression, % change relative to DMSO control [6] | BBC3 expression, % change relative to DMSO control [6] | CCDN1 expression, % change relative to DMSO control [6] | FOS expression, % change relative to DMSO control [6] | MYC expression, % change relative to DMSO control [6] | BAK expression, % change relative to DMSO control [9] | BAX expression, % change relative to DMSO control [9] | BBC3 expression, % change relative to DMSO control [9] | CCDN1 expression, % change relative to DMSO control [9] | FOS expression, % change relative to DMSO control [9] | JUN expression, % change relative to DMSO control [9] | MYC expression, % change relative to DMSO control [9] | morphology change in cancer cells with wild-type and mutant p53 [10] | morphology change in cells lacking p53 [10] | growth of PC-3 prostate tumors [12] | IC50 [13] | food or water intake or behavior [14] | overall toxicity in healthy rats [14] | further results
1 | O=C1CCCN1c1ccc(S(=O)(=O)N2CCCc3ccccc32)cc1 [Compound 1, 1-(4-(3,4-dihydroquinolin-1(2H)-ylsulfonyl)phenyl)pyrrolidin-2-one] | 20 nM | −22% | −30% | −90% | −10% | −15% | −35% | −20% | +5% | −38% | +10% | +75% | +75% | +25% | morphology change from a flat adherent cell to a rounded non-adherent one | not observed | inhibited the growth of PC-3 prostate tumors | 35 nM |  |  | EC50 [1]: ~25 nM; transcriptional activity of the NF-B signaling pathway [2]: did not alter the transcriptional activity; effect on normal human fibroblast cells [3]: did not have any affect on normal human fibroblast cells; cytotoxicity (leakage of G6PDH) [4]: not cytotoxic; mRNA levels of canonical Wnt target genes CCND1, AXIN2, c-MYC [7]: decrease in mRNA levels; apoptotic HEK293 cells [8]: increase in apoptotic HEK293 cells; Ki67 protein levels ([11]; SW480 cells): elevated; cell cycle distribution ([11]; SW480 cells, InCell 1000 images): significantly more cells in G2 and less in G1/S phases; cancer cell proliferation (in words) ([11]; SW480 colon cancer cell line): significantly inhibited cancer cell proliferation
2 | CC1CCc2ccccc2N1S(=O)(=O)c1ccc(N2CCCC2=O)cc1 (centres unmarked) [Compound 4, 1-(4-(2-methyl-3,4-dihydroquinolin-1(2H)-ylsulfonyl)phenyl)pyrrolidin-2-one] | 100 nM | −42% | −55% | −85% | −30% | −38% | −40% | −55% | −55% | −37% | −42% | −25% | −25% | −75% | morphology change from a flat adherent cell to a rounded non-adherent one | not observed |  | 45 nM | no differences in food or water intake or behavior | nontoxic | weights of the rats compared to controls [14]: no differences in the weights of the rats were observed
3 | CN1CCN(S(=O)(=O)c2ccc(N3CCCC3=O)cc2)c2ccccc21 [Compound 15, 1-(4-(4-methyl-3,4-dihydroquinoxalin-1(2H)-ylsulfonyl)phenyl)pyrrolidin-2-one] | 20 nM | −45% | −58% | −55% | −28% | −25% | −45% | −58% | −54% | −45% | −30% | −24% | −30% | −60% | morphology change from a flat adherent cell to a rounded non-adherent one | not observed | inhibited the growth of PC-3 prostate tumors | 93 nM | no differences in food or water intake or behavior | nontoxic | toxicity in tissue (liver, heart, kidney, lung and intestine) [14]: did not show any indication of toxicity; weights of the rats compared to controls [14]: no differences in the weights of the rats were observed; serum clinical chemistry values compared with vehicle-treated animals ([14]; at termination): did not alter the clinical chemistry values; weight of the excised HCT-116 tumors, lower relative to the vehicle control ([15]; i.p. 20 mg/kg daily, Day 28): 77%; growth of HCT-116 colon tumors ([15]; nu/nu mice, i.p. 20 mg/kg daily for 28 days): decreased the growth of HCT-116 colon tumors; JUN expression, % change relative to DMSO control [6]: +45%; weight of the excised PC-3 tumors compared to vehicle-treated controls ([12]; i.p. 30 mg/kg daily, Day 19): 66%
